# Experimental data published in US10538487B2, “Sulfonylureas and related compounds and use of same” (priority 2015, dated 2020).
# Where “and” joins values, the source holds several entries; their conditions need not be identical. Equal entries are not always repeated.
# Experiment: Single dose pharmacokinetic study in mice (iv 4 mg/Kg, po 20 mg/Kg), plasma concentration post-dosing
# Assay type: in vivo, mouse
# Conditions: mouse
# Procedure: This is advantageous leading to comparatively lower doses or less frequent administration. The procedure followed was: Male C57BL/6 mice were used at 7-9 weeks age with 3 animals per group. Mice were dosed with test compound using single intravenous bolus or oral gavage. Blood samples were taken via submandibular or saphenous vein for analysis of plasma concentrations of compound by LC-MS/MS at the following timepoints: IV (3 mice): 0.083, 0.25, 0.5, 1, 2, 4, 8 and 24 hours post dosing, PO (3 mice): 0.25, 0.5, 1, 2, 4, 8 and 24 hours post dosing. LC-MS/MS method for the quantitative determination of test compound in corresponding biological matrix was developed. […] The results are shown graphically in FIGS. 1A to 1C (MCC950) and FIGS. 2A to 2C (MCC7840).
# [1] = IV 4 mg/Kg, individual mice M1-M3, 4 mg/kg
# [2] = PO 20 mg/Kg, individual mice M4-M6, 20 mg/kg
smiles,measurement,setting,value
CC(C)n1ccc(S(=O)(=O)NC(=O)Nc2c3c(cc4c2CCC4)CCC3)n1 [MCC_007840_002],MRT last,"male, C57BL/6, mouse, plasma, po, 20 mg/kg, PO 20 mg/Kg, mean of 3 mice, read-out: MRT0-last, Mean PO",6.43 h
same,half-life,"male, C57BL/6, mouse, plasma, po, 20 mg/kg, PO 20 mg/Kg, mean of 3 mice, read-out: T1/2, Mean PO (converted)",5.02 h
same,Tmax,"male, C57BL/6, mouse, plasma, po, 20 mg/kg, PO 20 mg/Kg, mean of 3 mice, read-out: Tmax, Mean PO",0.25 h
same,bioavailability,"male, C57BL/6, plasma, PO 20 mg/Kg vs IV 4 mg/Kg, Mean PO, read-out: Bioavailability",67.2%
same,"Plasma concentration, IV Time 5 min","IV 4 mg/Kg, 5 min post dosing, individual mice M1-M3, 4 mg/kg",41900 ng/mL and 38600 ng/mL
same,"Plasma concentration, IV Time 0.250 h","IV 4 mg/Kg, 0.250 h post dosing, individual mice M1-M3, 4 mg/kg",29300 ng/mL
same,"Plasma concentration, IV Time 0.500 h","IV 4 mg/Kg, 0.500 h post dosing, individual mice M1-M3, 4 mg/kg",25200 ng/mL and 24500 ng/mL
same,"Plasma concentration, IV Time 1.00 h","IV 4 mg/Kg, 1.00 h post dosing, individual mice M1-M3, 4 mg/kg",18900 ng/mL and 17200 ng/mL
same,"Plasma concentration, IV Time 2.00 h","IV 4 mg/Kg, 2.00 h post dosing, individual mice M1-M3, 4 mg/kg",14700 ng/mL and 19900 ng/mL
same,"Plasma concentration, IV Time 4.00 h","IV 4 mg/Kg, 4.00 h post dosing, individual mice M1-M3, 4 mg/kg",8550 ng/mL and 8590 ng/mL
same,"Plasma concentration, IV Time 8.00 h","IV 4 mg/Kg, 8.00 h post dosing, individual mice M1-M3, 4 mg/kg",3360 ng/mL and 4440 ng/mL
same,"Plasma concentration, IV Time 24.0 h","IV 4 mg/Kg, 24.0 h post dosing, individual mice M1-M3, 4 mg/kg",122 ng/mL and 130 ng/mL
same,Tlast,"IV 4 mg/Kg, individual mice M1-M3",24.0 h
same,AUC0-inf,[1],105.283 µg·h/mL and 116.833 µg·h/mL
same,AUC0-last,[1],104.705 µg·h/mL and 116.222 µg·h/mL
same,AUCExtra,[1],0.770% and 0.549% and 0.523%
same,AUMCExtra,[1],5.23% and 3.81% and 3.41%
same,C0,[1],50100 ng/mL and 44301 ng/mL
same,Cl,[1],0.633 mL/min/kg and 0.571 mL/min/kg
same,MRT0-inf,[1],4.15 h and 4.40 h
same,MRT0-last,[1],4.01 h and 4.28 h
same,T1/2,[1],3.29 h and 3.26 h
same,Vdss,[1],0.158 L/kg and 0.151 L/kg
same,"AUCExtra, Mean IV","IV 4 mg/Kg, mean of 3 mice",0.614%
same,"AUMCExtra, Mean IV","IV 4 mg/Kg, mean of 3 mice",4.15%
same,"C0, Mean IV","IV 4 mg/Kg, mean of 3 mice",52245 ng/mL
same,"Tlast, Mean IV","IV 4 mg/Kg, mean of 3 mice",24.0 h
same,"Plasma concentration, PO Time 0.250 h","PO 20 mg/Kg, 0.250 h post dosing, individual mice M4-M6, 20 mg/kg",84300 ng/mL and 27400 ng/mL and 69700 ng/mL
same,"Plasma concentration, PO Time 0.500 h","PO 20 mg/Kg, 0.500 h post dosing, individual mice M4-M6, 20 mg/kg",70300 ng/mL and 24000 ng/mL and 56600 ng/mL
same,"Plasma concentration, PO Time 1.00 h","PO 20 mg/Kg, 1.00 h post dosing, individual mice M4-M6, 20 mg/kg",60400 ng/mL and 20900 ng/mL and 45700 ng/mL
same,"Plasma concentration, PO Time 2.00 h","PO 20 mg/Kg, 2.00 h post dosing, individual mice M4-M6, 20 mg/kg",54900 ng/mL and 19100 ng/mL and 53800 ng/mL
same,"Plasma concentration, PO Time 4.00 h","PO 20 mg/Kg, 4.00 h post dosing, individual mice M4-M6, 20 mg/kg",32900 ng/mL and 14100 ng/mL and 32800 ng/mL
same,"Plasma concentration, PO Time 8.00 h","PO 20 mg/Kg, 8.00 h post dosing, individual mice M4-M6, 20 mg/kg",14100 ng/mL and 12800 ng/mL and 29900 ng/mL
same,"Plasma concentration, PO Time 24.0 h","PO 20 mg/Kg, 24.0 h post dosing, individual mice M4-M6, 20 mg/kg",660 ng/mL and 2370 ng/mL and 1370 ng/mL
same,Tlast,"PO 20 mg/Kg, individual mice M4-M6",24.0 h
same,AUC0-inf,[2],251.697 µg·h/mL and 466.063 µg·h/mL
same,AUC0-last,[2],364.947 µg·h/mL and 226.687 µg·h/mL and 457.808 µg·h/mL
same,AUCExtra,[2],0.922% and 9.94% and 1.77%
same,AUMCExtra,[2],5.35% and 32.1% and 7.78%
same,Cmax,[2],84300 ng/mL and 27400 ng/mL and 69700 ng/mL
same,MRT0-last,[2],8.07 h and 6.41 h
same,T1/2,[2],3.57 h and 7.31 h and 4.18 h
same,"AUCExtra, Mean PO","PO 20 mg/Kg, mean of 3 mice",4.21%
same,"AUMCExtra, Mean PO","PO 20 mg/Kg, mean of 3 mice",15.1%
same,"Tlast, Mean PO","PO 20 mg/Kg, mean of 3 mice",24.0 h
